Assay results reported in publication PMC10247784, “Physiological activation of human and mouse bitter taste receptors by bile acids” (Communications Biology, 2023).
Each block holds one compound with its values, some of them ahead of it.

Target: T1, mouse Tas2r105 (Mus musculus, UniProt Q9JKT4)
T1 construct: expressed in transfected cells; host or cells: HEK293T-Gα16gust44
T1 sequence (Q9JKT4 1-300): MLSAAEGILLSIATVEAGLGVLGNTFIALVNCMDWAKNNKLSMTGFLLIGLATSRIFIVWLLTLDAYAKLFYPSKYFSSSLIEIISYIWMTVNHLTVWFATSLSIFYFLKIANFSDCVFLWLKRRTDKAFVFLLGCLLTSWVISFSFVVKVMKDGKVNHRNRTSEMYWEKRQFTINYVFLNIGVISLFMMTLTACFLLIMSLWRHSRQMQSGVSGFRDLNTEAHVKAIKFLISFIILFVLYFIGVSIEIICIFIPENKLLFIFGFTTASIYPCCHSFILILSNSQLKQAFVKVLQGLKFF
Test: Calcium imaging assay (FLIPR), HEK293T-Gα16gust44 cells transfected with mouse Tas2r105
Format: cell-based
Details: for Δ F/F: Tas2r105
Experimental: This set of bile acids was chosen because of their commercial availability in high purities, their diversity within the class of bile acids and their previous detection and quantitation in human blood. Stock solutions were prepared in DMSO.
As basal growth medium for the HEK293T-Gα16gust44 cell line[17],[59] served Dulbecco’s modified eagle medium (DMEM) (Thermo Fisher Scientific, Darmstadt, Germany) supplemented with 10 % fetal bovine serum (Sigma-Aldrich, Steinheim, Germany), 2 mM L-glutamine (Sigma-Aldrich, Steinheim, Germany), 100 units/ml penicillin (Sigma Aldrich, Steinheim, Germany) and 100 µg/ml streptomycin (Sigma Aldrich, Steinheim, Germany). Growth conditions were 37 °C, 5 % CO2 and saturated air-humidity[60].
HEK293T-Gα16gust44 cells were seeded on poly-D-lysine (10 µg/ml) coated 96-well plates to reach a confluence of 40-60 % the next day. For transient transfection 150 ng of plasmid DNA containing the receptor of interest and 0.3 µl lipofectamine 2000 (Thermo Fisher Scientific, Darmstadt, Germany) per well were used and transfection took place according to the manual of lipofectamine 2000. […] The empty vector DNA (mock) was transfected as negative control[14],[41].
Cells were loaded using the calcium-sensitive fluorescent dye Fluo-4-AM (Abcam, Cambridge, Great Britain) in the presence of 2.5 mM probenecid (Sigma-Aldrich, Steinheim, Germany) the day after transfection[13],[41]. 1 h after loading, cells were washed with C1 buffer using a BioTek Cell Washer, incubated in the dark for half an hour and washed again. For automated agonist application and measurement of fluorescence changes, a FLIPR^TETRA device (Molecular Devices, San José, United States) was used. Viability of cells was tested by application of 100 nM Somatostatin 14 (Bachem, Bubendorf, Switzerland)[42].
Measured data were negative control corrected by subtracting the signal of the mock-transfected cells and exported to Microsoft Excel using the FLIPR software ScreenWorks 4.2. In Microsoft Excel software, standardization of maximum fluorescence intensities to the basal fluorescence and normalization to the buffer-only control was done to calculate the relative fluorescence changes (ΔF/F).
Initial screening experiments performed in duplicate wells were confirmed by at least one replication and representative traces were selected for display. All dose-response relationships were determined by three independent experiments (biological replicates) performed in duplicates (technical replicates). Threshold concentrations, defined as lowest substance concentrations leading to statistically significant elevated fluorescence changes in receptor-transfected cells compared with empty vector-transfected cells, were determined using SigmaPlot with Student’s t-test to evaluate statistical significance (p < 0.01).

Δ F/F (conc. 0,01 mM): 0.004381 | Δ F/F (conc. 0,1 mM): 0.01642 | Δ F/F (conc. 0,03 mM): 0.01245 | Δ F/F (conc. 0,3 mM): 0.0274 | Δ F/F (conc. 0,001 mM): 0.003279 | Δ F/F (conc. 1 mM): 0.07136 | Δ F/F (conc. 0,003 mM): -0.003104 | RLU (Time 0 s): 0 RLU | RLU (Time 2 s): -27.0595 RLU | RLU (Time 4 s): -18.6603 RLU | RLU (Time 6 s): -18.2123 RLU | RLU (Time 8 s): -47.8563 RLU | RLU (Time 12 s): -34.2819 RLU | RLU (Time 14 s): -34.7557 RLU | RLU (Time 16 s): -23.6188 RLU | RLU (Time 18 s): -16.5747 RLU | RLU (Time 18.781 s): -3.899 RLU | RLU (Time 20.781 s): -20.1413 RLU | RLU (Time 22.781 s): -4.143 RLU | RLU (Time 24.781 s): 15.6549 RLU | RLU (Time 26.781 s): 13.7683 RLU | RLU (Time 28.781 s): 17.1414 RLU | RLU (Time 30.781 s): 33.1924 RLU | RLU (Time 32.781 s): 40.0682 RLU | RLU (Time 34.781 s): 38.6999 RLU | RLU (Time 36.781 s): 117.771 RLU | RLU (Time 38.781 s): 121.11 RLU | RLU (Time 40.781 s): 113.511 RLU | RLU (Time 42.781 s): 141.314 RLU | RLU (Time 44.781 s): 160.969 RLU | RLU (Time 46.781 s): 200.571 RLU | RLU (Time 48.781 s): 228.76 RLU | RLU (Time 50.781 s): 238.054 RLU | RLU (Time 52.781 s): 279.774 RLU | RLU (Time 54.781 s): 314.942 RLU | RLU (Time 56.781 s): 299.791 RLU | RLU (Time 58.781 s): 350.668 RLU | RLU (Time 60.781 s): 363.761 RLU | RLU (Time 62.781 s): 387.64 RLU | RLU (Time 64.781 s): 388.62 RLU | RLU (Time 66.781 s): 424.095 RLU | RLU (Time 68.781 s): 419.549 RLU | RLU (Time 70.781 s): 443.973 RLU | RLU (Time 72.781 s): 413.221 RLU | RLU (Time 74.781 s): 419.192 RLU | RLU (Time 76.781 s): 460.126 RLU | RLU (Time 78.781 s): 478.685 RLU | RLU (Time 80.781 s): 487.49 RLU | RLU (Time 82.781 s): 529.97 RLU | RLU (Time 84.781 s): 535.792 RLU | RLU (Time 86.781 s): 528.828 RLU | RLU (Time 88.781 s): 565.311 RLU | RLU (Time 90.781 s): 546.96 RLU | RLU (Time 92.781 s): 541.782 RLU | RLU (Time 94.781 s): 524.334 RLU | RLU (Time 96.781 s): 507.8 RLU | RLU (Time 98.781 s): 505.738 RLU | RLU (Time 100.781 s): 510.912 RLU | RLU (Time 102.781 s): 470.239 RLU | RLU (Time 104.781 s): 497.869 RLU | RLU (Time 106.781 s): 500.977 RLU | RLU (Time 108.781 s): 492.243 RLU | RLU (Time 110.781 s): 525.903 RLU | RLU (Time 112.781 s): 501.6 RLU | RLU (Time 114.781 s): 517.173 RLU | RLU (Time 116.781 s): 514.443 RLU | RLU (Time 118.781 s): 515.53 RLU | RLU (Time 120.781 s): 497.17 RLU | RLU (Time 122.781 s): 525.829 RLU | RLU (Time 124.781 s): 530.193 RLU | RLU (Time 126.781 s): 525.829 RLU | RLU (Time 128.781 s): 520.174 RLU | RLU (Time 130.781 s): 519.565 RLU | RLU (Time 132.781 s): 551.214 RLU | RLU (Time 134.781 s): 551.693 RLU | RLU (Time 136.781 s): 519.874 RLU | RLU (Time 137.578 s): 524.174 RLU | RLU (Time 143.578 s): 517.004 RLU | RLU (Time 149.578 s): 507.474 RLU | RLU (Time 155.578 s): 522.299 RLU | RLU (Time 161.578 s): 476.762 RLU | RLU (Time 167.578 s): 499.828 RLU | RLU (Time 173.578 s): 455.735 RLU | RLU (Time 179.578 s): 459.26 RLU | RLU (Time 185.578 s): 429.678 RLU | RLU (Time 191.578 s): 409.042 RLU | RLU (Time 197.578 s): 394.775 RLU | RLU (Time 203.578 s): 421.467 RLU | RLU (Time 209.578 s): 379.61 RLU | RLU (Time 215.578 s): 405.275 RLU | RLU (Time 221.578 s): 372.014 RLU | RLU (Time 227.578 s): 339.525 RLU | RLU (Time 233.578 s): 348.807 RLU | RLU (Time 239.578 s): 313.214 RLU | RLU (Time 245.578 s): 300.083 RLU | RLU (Time 293.578 s): 317.696 RLU | RLU (Time 299.578 s): 309.428 RLU | RLU (Time 305.578 s): 321.267 RLU | RLU (Time 311.578 s): 329.776 RLU | RLU (Time 317.578 s): 375.676 RLU | RLU (Time 323.578 s): 369.197 RLU | RLU (Time 329.578 s): 335.975 RLU | RLU (Time 335.578 s): 363.52 RLU | RLU (Time 341.578 s): 327.284 RLU | RLU (Time 347.578 s): 338.669 RLU | RLU (Time 353.578 s): 324.825 RLU | RLU (Time 359.578 s): 287.782 RLU | Activation threshold concentration Tas2r105 (p < 0.01 vs empty vector): 300 µM
SMILES: C[C@H](CCC(=O)NCC(=O)O)[C@H]1CC[C@H]2[C@@H]3[C@H](O)C[C@@H]4C[C@H](O)CC[C@]4(C)[C@H]3C[C@H](O)[C@]12C [Glycocholic Acid, glycocholic acid]

SMILES: C[C@H](CCC(=O)NCCS(=O)(=O)O)[C@H]1CC[C@H]2[C@@H]3[C@H](O)C[C@@H]4C[C@H](O)CC[C@]4(C)[C@H]3C[C@H](O)[C@]12C [Taurocholic Acid, taurocholic acid]
Receptor response Tas2r105 (screening): lack of taurocholic acid responsiveness
